Key:
human AT2R fused to Cb23 = human AT2R fused to Cb23 (Homo sapiens, UniProt P50052); assay: Radioligand binding assay, displacement of 125I-[Sar1, Ile8]-Angiotensin II, hAT2R Cb23; conditions: displacement of 125I-[Sar1, Ile8]-Angiotensin II, human AT2R fused to Cb23, HEK-293 cell membrane preparations; read-out: Binding affinity on hAT2R_Cb23 IC50
Protocol: (§1) All synthesized ligands were evaluated in a radioligand assay by displacing ^125I-[Sar1, Ile8]-Angiotensin II (Perkin Elmer, NEX248050UC) from human AT2R fused to Cb23 or human/rodent/cynomolgus/minipig/dog WT AT2R in HEK-293 cells membrane preparations, using C21 (Vicore Pharma) and Angiotensin II (endogenous ligand) as reference. The affinity was determined using an eight-point dose-response curve, each point performed in duplicates. The compounds were also evaluated in a counterscreen binding assay for displacement of ^125I-[Sar1, Ile8]-Angiotensin II binding to human AT1R in HEK-293 cell membranes. For AT1R, the percent displacement was determined at 1 μM and […] (in duplicates) or using an eight-point dose-response curve, each point performed in duplicates with Candesartan and Losartan used as reference.
(§2) For the AT2R/AT1R binding assays, cell membranes, expressing AT2R_Cb23, AT2R or AT1R, were incubated with 0.05 nM ^125I-[Sarl, Ile8]-Ang II. The ligand competition assay was performed in a total volume of 100 μL assay buffer (50 mM Tris, 5 mM MgCl2, 1 mM EDTA, 0.1% BSA, pH 7.4), at concentrations ranging from […] to 10 μM. For each experiment, each ligand concentration was tested in duplicate. Non-specific binding (NSB) was determined by the inclusion of 10 μM unlabeled [Sarl]-Ang II (Sigma Aldrich). The reaction was initiated by the addition of radioligand, after which the plates were incubated at 25° C. for one hour. The reaction was terminated by rapid filtration using a vacuum harvester, applying six washes with 100 μL of ice-cold wash buffer (50 mM Tris.HCl, pH 7.4). The filter plates GF/C (Perkin Elmer) were pre-soaked in 0.5% PEI. The residual amount of radioactivity was determined via liquid scintillation counting. IC50 values, representing the concentration at which each ligand displaced 50% of ^125I-[Sarl, Ile8]-Ang II, were calculated using GraphPad Prism 7.02 by applying a Non-linear regression equation (variable slope, four parameters) on the data. The obtained values serve as affinity estimates for each ligand and their ability to compete against the radioligand for binding with AT2R or AT1R, respectively.

human AT1R = human AT1R (Homo sapiens (Human), UniProt P30556); assay: Counterscreen radioligand binding assay, displacement of 125I-[Sar1, Ile8]-Angiotensin II, hAT1R WT; conditions: for inhibition at 1 µM / inhibition at 10 µM: 125I-[Sar1, Ile8]-Ang II, semi-quantitative score; for inhibition at 1 µM: compound at 1 μM, read-out: % Displaced radioligand at 1 μM; for inhibition at 10 µM: compound at 10 μM, read-out: % Displaced radioligand at 10 μM; for IC50: HEK-293 cell membranes, read-out: Binding affinity On hAT1R IC50
Protocol: as §1, §2

Sequence of human AT1R (P30556 whole entry): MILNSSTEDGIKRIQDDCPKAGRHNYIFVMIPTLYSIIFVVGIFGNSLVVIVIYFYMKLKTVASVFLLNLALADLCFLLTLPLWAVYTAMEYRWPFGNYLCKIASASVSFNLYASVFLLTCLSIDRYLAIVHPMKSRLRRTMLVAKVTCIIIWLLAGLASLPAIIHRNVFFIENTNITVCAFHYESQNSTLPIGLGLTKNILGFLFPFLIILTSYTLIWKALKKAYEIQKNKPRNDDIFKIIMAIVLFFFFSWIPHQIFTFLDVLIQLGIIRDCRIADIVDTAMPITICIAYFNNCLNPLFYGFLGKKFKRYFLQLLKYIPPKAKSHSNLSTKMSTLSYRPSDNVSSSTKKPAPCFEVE
Sequence of human AT2R fused to Cb23 (P50052 whole entry, looked up, the tested form may be a part): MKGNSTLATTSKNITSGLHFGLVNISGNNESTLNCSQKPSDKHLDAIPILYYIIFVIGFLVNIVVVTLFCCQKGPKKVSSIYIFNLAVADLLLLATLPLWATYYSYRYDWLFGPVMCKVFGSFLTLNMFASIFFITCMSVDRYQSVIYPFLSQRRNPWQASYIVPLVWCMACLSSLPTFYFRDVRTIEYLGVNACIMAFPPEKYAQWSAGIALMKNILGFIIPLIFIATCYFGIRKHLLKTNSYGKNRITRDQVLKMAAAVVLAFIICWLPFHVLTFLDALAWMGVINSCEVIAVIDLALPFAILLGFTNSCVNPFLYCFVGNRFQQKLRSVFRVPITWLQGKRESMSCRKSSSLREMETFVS

IC50 (human AT2R fused to Cb23) [nM]	inhibition at 1 µM (human AT1R) [%]	inhibition at 10 µM (human AT1R) [%]	IC50 (human AT1R) [nM]	Structure (SMILES)
18.3	< 30	< 30		CC(C)Cc1cc(F)c(-c2nn[nH]n2)c(N2C[C@@H](C)N(Cc3cccnn3)[C@@H](C)C2)c1 [Compound A-186, 3-[[(2S,6R)-4-[3-fluoro-5-isobutyl-2-(2H-tetrazol-5-yl)-phenyl]-2,6-dimeth-yl-piperazin-1-yl]-methyl]pyridazine]
102	< 30	30 to 50	26700	CCc1nc2ccc(N(Cc3ccccc3)C(=O)c3cccs3)cc2c(=O)n1CC1CCN(c2ccccc2-c2nn[nH]n2)CC1 [Compound A-246, N-benzyl-N-[2-ethyl-4-oxo-3-[[1-[2-(2H-tetrazol-5-yl)phenyl]-4-piper-idyl]methyl]quin-azolin-6-yl]thio-phene-2-carbox-amide]
4300	< 30	< 30		Cc1cccc2nc(CN3CCN(c4cc(CC(C)C)ccc4-c4nn[nH]n4)CC3)cc(=O)n12 [Compound A-73, 2-[[4-[5-isobutyl-2-(2H-tetrazol-5-yl)-phenyl]piperazin-1-yl]methyl]-6-methyl-pyrido[1,2-a]pyrimidin-4-one-]
7180	< 30	< 30	34900	CCNc1ccc(C(=O)NS(=O)(=O)CC)c(N2CCN(Cc3nc4ccccc4s3)CC2)c1 [Compound A-44, 2-[4-(1,3-benzo-thiazol-2-ylmethyl)-piperazin-1-yl]-4-(ethylamino)-N-ethylsulfonyl-benz-amide]
2340	< 30	30 to 50	20300	CC(C)Cc1ccc(-c2nn[nH]n2)c(N2CCN(c3nc4ccccc4s3)CC2)c1 [Compound A-49, 2-[4-[5-isobutyl-2-(2H-tetrazol-5-yl)-phenyl]piperazin-1-yl]-1,3-benzo-thiazole]
2400	< 30	30 to 50	13600	CCOc1ccc(C(=O)NS(=O)(=O)CC)c(N2CCN(Cc3nc4ccccc4s3)CC2)c1 [Compound A-38, 2-[4-(1,3-benzothiazol-2-ylmethyl)piperazin-1-yl]-4-ethoxy-N-ethylsulfonyl-benzamide]
737	< 30	< 30		COc1ccc(CN2CCN(c3cc(CC(C)C)cc(F)c3-c3nn[nH]n3)CC2)nc1 [Compound A-194, 1-[3-fluoro-5-isobutyl-2-(2H-tetrazol-5-yl)phenyl]-4-[(5-methoxy-2-pyridyl)methyl]piperazine]
1500	< 30	30 to 50	12200	CC(C)Cc1ccc(-c2nn[nH]n2)c(N2CCN(Cc3nc4ccccc4c(=O)n3C)CC2)c1 [Compound A-78, 2-[[4-[5-isobutyl-2-(2H-tetrazol-5-yl)-phenyl]piperazin-1-yl]methyl]-3-methyl-quinazolin-4-one]
3080	< 30	< 30		CCc1cc(OC(C)C)cc(N2CCN(Cc3cccnn3)CC2)c1-c1nn[nH]n1 [Compound A-159, 3-[[4-[3-ethyl-5-isopropoxy-2-(2H-tetrazol-5-yl)phen-yl]piperazin-1-yl]-methyl]pyridazine]
757	< 30	< 30		CC(C)Cc1ccc(-c2nn[nH]n2)c(N2CCN(Cc3nccs3)CC2)c1 [Compound A-97, 2-[[4-[5-isobutyl-2-(2H-tetrazol-5-yl)phenyl]piperazin-1-yl]methyl]thiazole]
824	< 30	< 30		CC(C)Cc1cc(F)c(-c2nn[nH]n2)c(N2CCN(Cc3cc(C(F)(F)F)ccn3)CC2)c1 [Compound A-202, 1-[3-fluoro-5-isobutyl-2-(2H-tetrazol-5-yl)phenyl]-4-[[4-(trifluoromethyl)-2-pyridyl]methyl]piperazine]

Source: patent publication US20240368133A1, “Compounds for the Treatment of Pain, in Particular, Neuropathic Pain, and/or Other Diseases or Disorders that are Associated with AT2R and/or AT2R Mediated Signaling” (Confo Therapeutics N.V., priority 2021, published 2024)
